Source: patent publication US10150736B2, “Haptens and immunoreactive agents and use thereof for producing family antibodies and immunoassays for quinolones” (Consejo Superior de Investigaciones Cientificas (CSIC), priority 2010, dated 2018)
Values after ≈ are worked out from the molar mass of the structure shown.

Key:
Assay type in all cases: binding, rabbit
[1] = system: antibodies developed with immunoreactive agents described herein; assay: Determination of cross-reactivity by ELISA; conditions: for % CR (cross-reactivity): (DI50 CPFX/DI50 of tested compounds)×100; for IC50: competitive ELISA, antiserum and immunoreactive agent not named
Protocol: (§1) Microtiter plates were coated with corresponding coating antigen (indirect format) or antiserum (direct format) dissolved in coating buffer (100 μL/well) overnight at 4° C. or during 4 hours at room temperature and covered with airtight adhesive plates. Subsequently, plates were washed with PBST (four times, 300 μL/well) and quinolone patters were added (0.01 nM-10000 nM, in PBST, 50 μL/well) followed by the corresponding antiserum (indirect format) or enzymatic tracer (direct format) (50 μL/well) in microtiter plates. After 30 minutes at room temperature, plates were washed as described above and, in the case of indirect format, a solution of antilgG rabbit IgG labelled with HRP (1/6000 in PBST) (100 μl/well) was added and incubated for 30 minutes at room temperature. Plates were washed again, and for both formats, substrate solution was added (100 μL/well). Color development was stopped after 30 minutes at room temperature with […] (50 μL/well), and absorbance was read at 450 nm. Standard curves were adjusted to a four parameter equation, using the following formula: Y−[(A−B)/1−[x/C)D]+B, where A represents maximum absorbance, B represents minimum absorbance, C represents the concentration producing 50% of maximum absorbance, and D represents the tangent at the inflection point of sigmoid curve.
Stock solutions were prepared at a concentration of […] for different quinolones and other antibiotics in sodium hydroxide ([…]) and measured by ELISA. Cross-reactivity values were calculated according to the equation below: (DI50 CPFX/DI50 of tested compounds)×100.

antiserum (As) 171 [2] = assay: Competitive ELISA for ciprofloxacin, antiserum 171 with HRP conjugate I31 (enzymatic tracer); conditions: As 171 dilution 1/8000; IR I31 0.0625 μg/mL
Protocol: Immunization protocol was conducted in female white rabbits from New Zealand weighing 1-2 Kg, as described previously (Salvador, Analytical Chemistry. 2007, 79, 3734-3740). Immunogens (100 μg) dissolved in PBS (0.5 mL) were emulsified with Freund's adjuvant, completely the first time and the remainder incompletely, in 1:1 ratio. They were rapidly injected intradermally in different places of the host animal back (one injection per month). Antibody titers evolution was assessed by measuring serial dilutions binding of different antiserum in microtiter plates coated with the corresponding immunoreactive agent. […]
Microtiter plates were coated with corresponding coating antigen (indirect format) or antiserum (direct format) dissolved in coating buffer (100 μL/well) overnight at 4° C. or during 4 hours at room temperature and covered with airtight adhesive plates. […] Color development was stopped after 30 minutes at room temperature with […] (50 μL/well), and absorbance was read at 450 nm. Standard curves were adjusted to a four parameter equation, using the following formula: Y−[(A−B)/1−[x/C)D]+B, where A represents maximum absorbance, B represents minimum absorbance, C represents the concentration producing 50% of maximum absorbance, and D represents the tangent at the inflection point of sigmoid curve.

antiserum (As) 172 = assay: Competitive ELISA for ciprofloxacin, antiserum 172, coating antigen (indirect format)
Protocol: (§2) Immunization protocol was conducted in female white rabbits from New Zealand weighing 1-2 Kg, as described previously (Salvador, Analytical Chemistry. 2007, 79, 3734-3740). Immunogens (100 μg) dissolved in PBS (0.5 mL) were emulsified with Freund's adjuvant, completely the first time and the remainder incompletely, in 1:1 ratio. They were rapidly injected intradermally in different places of the host animal back (one injection per month). Antibody titers evolution was assessed by measuring serial dilutions binding of different antiserum in microtiter plates coated with the corresponding immunoreactive agent. After observing an acceptable antibody titer, animals were bled to death and their blood was collected in Vacutainer tubes fitted with a serum separating gel. Antiserum were obtained by centrifugation and stored at −80° C. in the presence of 0.02% NaN3.
as §1, with “Plates were washed again, and for both formats, substrate solution was added (100 μL/well).” left out

antiserum (As) 173 = assay: Competitive ELISA for ciprofloxacin, antiserum 173, coating antigen (indirect format)
Protocol: as §2
as §1, with “Plates were washed again, and for both formats, substrate solution was added (100 μL/well).” left out

antiserum (As) 171 [3] = assay: Competitive ELISA for ciprofloxacin, antiserum 171, coating antigen (indirect format)
Protocol: as §2
as §1, with “Plates were washed again, and for both formats, substrate solution was added (100 μL/well).” left out

IC50 [1]	SMILES	% CR (cross-reactivity) [1]	further results
>1000 μg-L^−1	O=C(N[C@H](CO)[C@H](O)c1ccc([N+](=O)[O-])cc1)C(Cl)Cl [Chloramphenicol]	<0.2%	
0.77 ± 0.27 μg-L^−1	O=C(O)c1cn(C2CC2)c2cc(N3CCNCC3)c(F)cc2c1=O [Ciprofloxacin]	100%	IC50 (antiserum (As) 171 [2]): 0.81 µg/L (≈ 0.00244 µM); IC50 (antiserum (As) 172; As 172 dilution 1/4000, IR I16 2.5 μg/mL): 38.39 µg/L (≈ 0.116 µM); IC50 (antiserum (As) 172; As 172 dilution 1/4000, IR I26 0.25 μg/mL): 11.56 µg/L (≈ 0.0349 µM); IC50 (antiserum (As) 172; As 172 dilution 1/32000, IR I19 0.0156 μg/mL): 27.60 µg/L (≈ 0.0833 µM); IC50 (antiserum (As) 173; As 173 dilution 1/16000, IR I16 5 μg/mL): 134.68 µg/L (≈ 0.406 µM); IC50 (antiserum (As) 173; As 173 dilution 1/16000, IR I26 0.25 μg/mL): 1.49 µg/L (≈ 0.0045 µM); IC50 (antiserum (As) 173; As 173 dilution 1/128000, IR I19 0.0156 μg/mL): 48.55 µg/L (≈ 0.147 µM); IC50 (antiserum (As) 171 [3]; As 171 dilution 1/16000, IR I16 2.5 μg/mL): 16.40 µg/L (≈ 0.0495 µM); IC50 (antiserum (As) 171 [3]; As 171 dilution 1/16000, IR I26 0.25 μg/mL): 1.66 µg/L (≈ 0.00501 µM); IC50 (antiserum (As) 171 [3]; As 171 dilution 1/128000, IR I19 0.0156 μg/mL): 4.81 µg/L (≈ 0.0145 µM)
4.30 μg-L^−1	CN1CCN(c2c(F)cc3c(=O)c(C(=O)O)cn4c3c2OCN4C)CC1 [Marbofloxacin]	28%	
>1000 μg-L^−1	Nc1ccc(S(=O)(=O)Nc2nccs2)cc1 [Sulfathiazole]	<0.2%	
0.96 μg-L^−1	O=C(O)c1cn(-c2ccc(F)cc2)c2cc(N3CCNCC3)c(F)cc2c1=O [Sarafloxacin]	80%	
0.78 μg-L^−1	CCn1cc(C(=O)O)c(=O)c2cc(F)c(N3CCNCC3)cc21 [Norfloxacin]	81%	
3.91 μg-L^−1	CC1CCc2cc(F)cc3c(=O)c(C(=O)O)cn1c23 (stereo not drawn) [Flumequine]	22%	
>1000 μg-L^−1	Cc1cc(C)nc(NS(=O)(=O)c2ccc(N)cc2)n1 [Sulfamethazine]	<0.2%	
0.91 μg-L^−1	CN1CCN(c2cc3c(cc2F)c(=O)c(C(=O)O)cn3-c2ccc(F)cc2)CC1 [Difloxacin]	75%	
0.65 μg-L^−1	CCN1CCN(c2cc3c(cc2F)c(=O)c(C(=O)O)cn3C2CC2)CC1 [Enrofloxacin]	95%	
7.31 μg-L^−1	CN1C[C@@H]2C[C@H]1CN2c1cc2c(cc1F)c(=O)c(C(=O)O)cn2C1CC1 [Danofloxacin]	8%	
>1000 μg-L^−1	CC1(C)S[C@@H]2[C@H](NC(=O)[C@H](N)c3ccccc3)C(=O)N2[C@H]1C(=O)O [Ampicillin]	<0.2%	

SMILES	IC50 [1]	% CR (cross-reactivity) [1]	further results
CCn1cc(C(=O)O)c(=O)c2cc3c(cc21)OCO3 [Oxolinic acid]	23.53 μg-L^−1	4%	
